Measurements taken from patent US20040116354A1, “Supplementary immunotherapeutics to be used after lung cancer removal” (priority 2001, published 2004).

Legend:
[1] = system: lung squamous cell carcinoma in the histopathological stage I; assay: multicenter double blind comparative clinical test, ubenimex preparation vs placebo after complete resection; type: in vivo, human
Method: With complete resection patients of lung squamous cell carcinoma in the histopathological stage I, a multicenter double blind comparative test using an ubenimex preparation (containing 30 mg ubenimex) and a placebo preparation (a control contentaining no ubenimex) was carried out. The ubenimex preparation or the placebo preparation was administered orally once a day. The dosing period of these preparations was 2 years after surgical resection. The observation period was 5 years or more including the subsequent period of 3 years or more of no administration after the dosing period. The survival time and recurrence-free survival time in the collected 389 cases (189 cases at the stage IA and 200 cases at the stage IB) were compared between the two groups, namely the ubenimex group and the placebo group by the Kaplan-Meier method. Tables 1 and 2 show the results of the statistic analysis by the generalized Wilcoxon test and the Log-Rank test. […] In these tables, the “U group” means the ubenimex-administered group and the “P group” means the placebo-administered group.

mice = conditions: 298 mg/kg (i.p.); cited from earlier work
humans = system: humans; parameters: dose or concentration left out as unconfirmed; conditions: cited from earlier work
[2] = system: lung squamous cell carcinoma; conditions: histopathological stage I; 30 mg daily for one year or longer; 21 cases; with or without tegaful; cited from earlier work
[3] = system: non-small cell lung cancer; conditions: histopathological stages I and II; 90 mg twice weekly for 5 years; 227 cases; cited from earlier work
[4] = Stage IA (189 cases), 30 mg orally once a day for 2 years
[5] = Stage IB (200 cases), 30 mg orally once a day for 2 years
[6] = total cases stage I (389 cases), 30 mg orally once a day for 2 years after resection, Kaplan-Meier

## CC(C)C[C@H](NC(=O)[C@@H](O)[C@H](N)Cc1ccccc1)C(=O)O [ubenimex, (−)-N-((2S, 3R)-3-amino-2-hydroxy-4-phenylbutyryl)-L-leucine]
[1]; 30 mg orally once a day for 2 years
  incidence of appetite loss (only adverse effect significantly occurring): 2.5%
[1]; [4]
  5-year recurrence-free survival ratio: 73%
  5-year survival ratio (survival time): 84%
[1]; [5]
  5-year recurrence-free survival ratio: 68%
  5-year survival ratio (survival time): 77%
[1]; [6]
  5-year recurrence-free survival ratio: 70%
  5-year survival ratio (survival time): 81%
mice
  toxicity in mice: no observed toxicity
humans
  adverse effects in humans: no specific adverse effects observed
[2]
  survival time vs ubenimex non-administered group: prolonged
[3]
  recurrence-free survival time vs non-administered group: favorable trend compared with the non-administered group in terms of recurrence-free survival time but the trend is far from significance
